This passage reports IC50 results from patent US7713994B2 (Wyeth LLC, priority 2005, dated 2010).

Experiment [1] has as its system HCT-116. As to the kind of experiment: Cytotoxicity assay (SRB), HCT-116. It counts as cell-based. To be noted: Homo sapiens, HCT-116, 72 h, read-out: In Vitro Cellular Activity IC50 HCT116. An outline of the steps: (§1)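 Protein staining with sulforhodamine B after cold TCA fixation served as the survival endpoint (A540, relative to untreated cells). Before staining, cells were incubated with compound at 37 °C, 7% CO2 for 3 days, or 6 days for BT474.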

Experiment [2] relates to LoVo. As to the kind of experiment: Cytotoxicity assay (SRB), LoVo. It counts as cell-based. To be noted: Homo sapiens, LoVo, 72 h, read-out: In Vitro Cellular Activity IC50 LOVO. Put shortly:
as §1

Experiment [3] deals with T1, cyclin B/CDK1 enzyme (Homo sapiens, UniProt P06493).
T1 construct: purchased New England BioLabs; host or cells: Sf9 insect cells, recombinant baculovirus
T1 sequence (P06493 whole entry): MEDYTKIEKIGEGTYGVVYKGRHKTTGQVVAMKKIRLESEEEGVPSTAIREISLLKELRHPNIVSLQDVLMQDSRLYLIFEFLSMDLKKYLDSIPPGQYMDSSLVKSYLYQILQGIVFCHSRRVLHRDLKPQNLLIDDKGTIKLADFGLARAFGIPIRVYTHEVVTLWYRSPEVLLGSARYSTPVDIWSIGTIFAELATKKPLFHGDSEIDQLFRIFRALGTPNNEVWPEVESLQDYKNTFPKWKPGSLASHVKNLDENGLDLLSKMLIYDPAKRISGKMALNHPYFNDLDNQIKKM
T1 sequence (P14635 whole entry partner): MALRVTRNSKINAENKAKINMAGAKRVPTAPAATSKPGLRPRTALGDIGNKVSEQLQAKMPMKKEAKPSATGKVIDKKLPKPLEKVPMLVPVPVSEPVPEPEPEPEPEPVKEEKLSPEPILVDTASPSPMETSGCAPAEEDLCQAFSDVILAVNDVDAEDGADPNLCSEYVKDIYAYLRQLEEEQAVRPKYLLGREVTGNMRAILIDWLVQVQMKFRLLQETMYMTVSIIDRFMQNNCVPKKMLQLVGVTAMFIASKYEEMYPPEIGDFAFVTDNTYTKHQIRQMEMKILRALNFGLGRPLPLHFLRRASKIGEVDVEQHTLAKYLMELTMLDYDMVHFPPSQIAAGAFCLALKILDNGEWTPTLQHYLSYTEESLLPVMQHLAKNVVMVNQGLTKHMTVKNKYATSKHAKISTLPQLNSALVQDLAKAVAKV
Description: CDK1 ELISA kinase assay (phospho-Rb ser 795 detection). Format: biochemical. To be noted: In Vitro Enzyme Assays, read-out: CDK1 IC50. Put shortly: (§2)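 GST-Rb C-terminal fragment coated on wells; kinase reaction: 200 μM ATP, 0.5 mg/ml BSA, HEPES pH 7.5, 10 mM MgCl2, baculovirus/Sf9 cyclin-CDK, 30° C, 1 h. Readout anti-phospho-Rb Ser795, HRP, TMB, A450. Test compound 10 ug/ml final.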
(In an ELISA, binding on a coated surface is turned into a signal by an enzyme label.)

The target of experiment [4] is T2, cyclin D1/cdk 4 enzyme (Homo sapiens, UniProt P11802).
T2 construct: made in house; host or cells: Sf9 insect cells, recombinant baculovirus
T2 sequence (P11802 whole entry, species assumed): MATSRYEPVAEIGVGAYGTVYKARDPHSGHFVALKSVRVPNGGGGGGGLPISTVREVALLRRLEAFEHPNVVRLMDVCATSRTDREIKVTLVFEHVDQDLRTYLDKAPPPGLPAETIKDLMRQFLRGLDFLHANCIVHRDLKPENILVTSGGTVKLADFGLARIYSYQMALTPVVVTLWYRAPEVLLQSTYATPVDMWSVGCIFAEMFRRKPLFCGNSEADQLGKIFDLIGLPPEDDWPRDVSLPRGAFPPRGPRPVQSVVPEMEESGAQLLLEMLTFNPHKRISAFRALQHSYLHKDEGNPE
T2 sequence (P24385 whole entry partner, species assumed): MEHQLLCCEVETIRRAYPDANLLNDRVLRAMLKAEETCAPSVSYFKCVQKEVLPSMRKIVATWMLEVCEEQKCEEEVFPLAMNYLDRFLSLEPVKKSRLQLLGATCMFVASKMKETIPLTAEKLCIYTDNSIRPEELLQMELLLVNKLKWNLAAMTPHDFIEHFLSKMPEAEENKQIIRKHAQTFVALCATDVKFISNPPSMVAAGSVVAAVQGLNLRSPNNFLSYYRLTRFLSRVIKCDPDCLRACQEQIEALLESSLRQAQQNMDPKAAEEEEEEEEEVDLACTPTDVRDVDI
As to the kind of experiment: CDK4 ELISA kinase assay (phospho-Rb ser 795 detection). Format: biochemical. The note with it: In Vitro Enzyme Assays, 200 μM ATP, read-out: CDK4 IC50. Put shortly:
as §2

Experiment [5] concerns BT474. Description: Cytotoxicity assay (SRB), BT474. It counts as cell-based. The note with it: Homo sapiens, BT-474, 144 h, read-out: In Vitro Cellular Activity IC50 BT474. An outline of the steps:
as §1

Experiment [6] addresses T3, cyclin E/CDK2 enzyme (Homo sapiens, UniProt P24941).
T3 construct: made in house; host or cells: Sf9 insect cells, recombinant baculovirus
Description: CDK2 ELISA kinase assay (phospho-Rb ser 795 detection). The note with it: In Vitro Enzyme Assays, read-out: CDK2 IC50. Format: biochemical. Put shortly:
as §2

Experiment [7] relates to MCF-7. Description: Cytotoxicity assay (SRB), MCF-7. The note with it: Homo sapiens, MCF7, 72 h, read-out: In Vitro Cellular Activity IC50 MCF-7. It counts as cell-based. An outline of the steps:
as §1

pIC50: −log10 of the molar value. Like-named read-outs stand apart in the source and are kept apart here. Bounds are passed on as bounds.

A word on the pIC50: it is the negative decadic logarithm of the IC50, by convention in mol/L. For `CN1CCN(c2ccc(N/C=C3\C(=O)NC(=O)c4ccc(-c5ccc(F)cc5)cc43)cc2)CC1` [Example 263, (4Z)-6-(4-Fluorophenyl)-4-({[4-(4-methylpiperazin-1-yl)phenyl]amino}methylene)-isoquinoline-1,3(2H,4H)-dione], the pIC50 in experiment [1] (HCT116 cells, SRB, three days) was 5.89; in experiment [2] (LoVo cells, SRB, three days), 5.54; in experiment [3], below 4.30; in experiment [4], 6.30; in experiment [5] (BT474 cells, SRB, 6 days), 5.54; in experiment [6], below 4.30. Further, in experiment [7] (MCF-7 cells, SRB, three days), the pIC50 is 5.51.
Regarding `CC(=O)Oc1cc(CN/C=C2\C(=O)NC(=O)c3ccc(Br)cc32)cc2c1OC(C)(C)O2` [Example 268, 6-({[(Z)-(6-Bromo-1,3-dioxo-2,3-dihydroisoquinolin-4(1H)-ylidene)methyl]amino}methyl)-2,2-dimethyl-1,3-benzodioxol-4-yl acetate], the pIC50 in experiment [1] (HCT116 cells, SRB, three days) was 4.54; in experiment [2] (LoVo cells, SRB, three days) it was 4.33; in experiment [3] it was 5.92; in experiment [4], 4.46; in experiment [5] (BT474 cells, SRB, 6 days), below 4.30; in experiment [6], 4.63. For the same compound, the negative-log IC50 (pIC50) in experiment [7] (MCF-7 cells, SRB, three days) is 4.46.
For `CC1(C)Oc2cc(CN/C=C3\C(=O)NC(=O)c4ccc(Br)cc43)cc(OC(=O)C3CC3)c2O1` [Example 269, 6-({[(Z)-(6-Bromo-1,3-dioxo-2,3-dihydroisoquinolin-4(1H)-ylidene)methyl]amino}methyl)-2,2-dimethyl-1,3-benzodioxol-4-yl cyclopropanecarboxylate], the pIC50 was 4.60 in experiment [1] (HCT116 cells, SRB, three days); 4.39 in experiment [2] (LoVo cells, SRB, three days); 5.72 in experiment [3]; below 4.30 in experiment [4]; 4.37 in experiment [5] (BT474 cells, SRB, 6 days); 4.61 in experiment [6]. In experiment [7] (MCF-7 cells, SRB, three days), the pIC50 was 4.54.
`CN(C)CCCc1ccc(N/C=C2\C(=O)NC(=O)c3ccc(Br)cc32)cc1` [Example 270, (4Z)-6-Bromo-4-[({4-[3-(dimethylamino)propyl]phenyl}amino)methylene]isoquinoline-1,3(2H,4H)-dione]: the pIC50 in experiment [1] (HCT116 cells, SRB, three days) was 4.89; in experiment [2] (LoVo cells, SRB, three days), 4.62; in experiment [3] it was below 4.30; in experiment [4] it was 5.52; in experiment [5] (BT474 cells, SRB, 6 days) it was 4.57; in experiment [6], 4.41. Further, the pIC50 in experiment [7] (MCF-7 cells, SRB, three days) is 5.14.
Turning to `CONCCCc1ccc(N/C=C2\C(=O)NC(=O)c3ccc(Br)cc32)cc1` [Example 274, (4Z)-6-Bromo-4-[({4-[3-(methoxyamino)propyl]phenyl}amino)methylene]isoquinoline-1,3(2H,4H)-dione], the pIC50 is 5.02 in experiment [1] (HCT116 cells, SRB, three days); 4.90 in experiment [2] (LoVo cells, SRB, three days); 4.82 in experiment [3]; 5.72 in experiment [4]; 4.92 in experiment [5] (BT474 cells, SRB, 6 days); 5.55 in experiment [6]. Further, the negative-log IC50 (pIC50) in experiment [7] (MCF-7 cells, SRB, three days) was 4.99.
For the compound `CN(C)CCCN(C)c1ccc(N/C=C2\C(=O)NC(=O)c3ccc(Br)cc32)cc1` [Example 275, (4Z)-6-Bromo-4-[({4-[[3-(dimethylamino)propyl](methyl)amino]phenyl}amino)methylene]isoquinoline-1,3(2H,4H)-dione], the negative-log IC50 (pIC50) in experiment [1] (HCT116 cells, SRB, three days) was 5.38; in experiment [2] (LoVo cells, SRB, three days), 5.07; in experiment [3], below 4.30; in experiment [4], 4.84; in experiment [5] (BT474 cells, SRB, 6 days), 5.00; in experiment [6], below 4.30. For the same compound, the negative-log IC50 (pIC50) in experiment [7] (MCF-7 cells, SRB, three days) is 5.28.
Regarding `CN1CCC(Oc2ccc(N/C=C3\C(=O)NC(=O)c4ccc(Br)cc43)cc2)C1` (stereo not shown) [Example 276, (4Z)-6-Bromo-4-[({4-[(1-methylpyrrolidin-3-yl)oxy]phenyl}amino)methylene]isoquinoline-1,3(2H,4H)-dione], the pIC50 in experiment [1] (HCT116 cells, SRB, three days) was 5.41; in experiment [2] (LoVo cells, SRB, three days), 5.21; in experiment [3], below 4.30; in experiment [4], 4.37; in experiment [5] (BT474 cells, SRB, 6 days), 5.08; in experiment [6], below 4.30. Besides, the negative logarithm of the IC50 (pIC50) in experiment [7] (MCF-7 cells, SRB, three days) is 5.36.
`CN1CCN(CCCNC=C2C(=O)NC(=O)c3ccc(-n4cccc4)cc32)CC1` [Example 279, 4-{[3-(4-Methyl-piperazin-1-yl)-propylamino]-methylene}-6-pyrrol-1-yl-4H-isoquinoline-1,3-dione]: the pIC50 is 5.00 in experiment [1] (HCT116 cells, SRB, three days); 4.96 in experiment [2] (LoVo cells, SRB, three days); below 4.30 in experiment [3]; 6.72 in experiment [4]; 5.22 in experiment [5] (BT474 cells, SRB, 6 days); below 4.30 in experiment [6]. Further, the negative-log IC50 (pIC50) in experiment [7] (MCF-7 cells, SRB, three days) was 5.28.
In the case of `CN(C)NC(=O)c1ccc(N/C=C2\C(=O)NC(=O)c3ccc(Br)cc32)cc1` [Example 280, 4-{[(Z)-(6-Bromo-1,3-dioxo-2,3-dihydroisoquinolin-4(1H)-ylidene)methyl]amino}-N′,N′-dimethylbenzohydrazide], the negative logarithm of the IC50 (pIC50) in experiment [1] (HCT116 cells, SRB, three days) is 4.68; in experiment [2] (LoVo cells, SRB, three days) it was 4.49; in experiment [3], below 4.30; in experiment [4], 4.54; in experiment [5] (BT474 cells, SRB, 6 days) it was 4.55; in experiment [6], 5.35. Moreover, the negative logarithm of the IC50 (pIC50) in experiment [7] (MCF-7 cells, SRB, three days) is 4.77.
For the compound `CN(C)NC(=O)Cc1ccc(N/C=C2\C(=O)NC(=O)c3ccc(Br)cc32)cc1` [Example 283, 2-(4-{[(Z)-(6-Bromo-1,3-dioxo-2,3-dihydroisoquinolin-4(1H)-ylidene)methyl]amino}phenyl)-N′,N′-dimethylacetohydrazide], the negative logarithm of the IC50 (pIC50) in experiment [1] was 4.77; in experiment [2], 4.77; in experiment [3] it was below 4.30; in experiment [4], 5.00; in experiment [5], 4.80; in experiment [6] it was below 4.30. Further, the negative logarithm of the IC50 (pIC50) in experiment [7] is 5.01.
As for `COC[C@@H]1CCCN1Cc1ccc(N/C=C2\C(=O)NC(=O)c3ccc(I)cc32)cc1` [Example 285, (4Z)-6-Iodo-4-{[(4-{[(2S)-2-(methoxymethyl)pyrrolidin-1-yl]methyl}phenyl)amino]methylene}isoquinoline-1,3(2H,4H)-dione], the pIC50 is 5.44 in experiment [1] (HCT116 cells, SRB, three days); 5.44 in experiment [2] (LoVo cells, SRB, three days); below 4.30 in experiment [3]; 6.12 in experiment [4]; 6.43 in experiment [5] (BT474 cells, SRB, 6 days); below 4.30 in experiment [6]. Moreover, the pIC50 in experiment [7] (MCF-7 cells, SRB, three days) was 6.10.
Consider `CCCOc1ccc(CN/C=C2\C(=O)NC(=O)c3ccc(I)cc32)cc1OC(=O)CCl` [Example 293, 5-({[(Z)-(6-Iodo-1,3-dioxo-2,3-dihydroisoquinolin-4(1H)-ylidene)methyl]amino}methyl)-2-propoxyphenyl chloroacetate], for which the pIC50 in experiment [1] (HCT116 cells, SRB, three days) was 6.11; in experiment [2] (LoVo cells, SRB, three days), 6.05; in experiment [3], below 4.30; in experiment [4], 4.86; in experiment [5] (BT474 cells, SRB, 6 days) it was 6.16; in experiment [6] it was below 4.30. In addition, in experiment [7] (MCF-7 cells, SRB, three days), the negative logarithm of the IC50 (pIC50) is 5.66.
With `CN1CCN(c2ccc(N/C=C3\C(=O)NC(=O)c4ccc(-c5ccc(OC(F)(F)F)cc5)cc43)cc2)CC1` [Example 298, (4Z)-4-({[4-(4-Methylpiperazin-1-yl)phenyl]amino}methylene)-6-[4-(trifluoromethoxy)phenyl]isoquinoline-1,3(2H,4H)-dione], the pIC50 in experiment [1] (HCT116 cells, SRB, three days) is 5.68; in experiment [2] (LoVo cells, SRB, three days), 5.01; in experiment [3] it was 4.39; in experiment [4] it was 4.54; in experiment [5] (BT474 cells, SRB, 6 days) it was 5.20; in experiment [6], below 4.30. Further, the pIC50 in experiment [7] (MCF-7 cells, SRB, three days) is 5.55.
